The text below walks through data of patent US20100168075A1, “Novel 2-Azetidinone Derivatives As Cholesterol Absorption Inhibitors For The Treatment Of Hyperlipidaemic Conditions” (ASTRAZENECA AB, priority 2005, published 2010).

Data set [1] relates to ^14C-cholesterol absorption. Nature of the data set: In vivo testing of cholesterol absorption inhibitors (A). The settings on record: Mus musculus, po; 0.2 μmol/kg, gavage, procedure A, C57BL/6 female mice. The procedure:
In Vivo Testing of Cholesterol Absorption Inhibitors (A)
C57BL/6 female mice were maintained on regular chow diet and housed in individual cages to collect faeces. Mice were fasted for 3 hours and then gavaged with vehicle or compound. Half an hour later the mice were gavaged with radiolabelled cholesterol. Six hours after the ^14C-cholesterol gavage blood samples were taken via the tail and plasma prepared to determine how much cholesterol were absorbed. 24 hours after the gavage of ^14C-cholesterol the mice were bled and plasma were prepared for analysis. Faeces were collected for 24 hours to assess absorption efficiency.

A further data set has as its system Caco-2 cells. Nature of the data set: Absorption in a Caco-2 cells model. In kind it is in vitro ADME. The protocol:
Absorption of the compounds of formula (I) was tested in a Caco-2 cells model (Gastroenterology 1989, 96, 736): […]

Each structure is given as a SMILES string.

In data set [1], `N[C@H](CCCCNC(=O)CNC(=O)COc1ccc([C@@H]2[C@@H](SCC(O)c3ccc(F)cc3)C(=O)N2c2ccc(F)cc2)cc1)C(=O)O` (stereo partly drawn) [Example 10, N^6-(N-{[4-((2R,3R)-1-(4-fluorophenyl)-3-{[2-(4-fluorophenyl)-2-hydroxyethyl]thio}-4-oxoazetidin-2-yl)phenoxy]acetyl}glycyl)-D-lysine] showed an inhibition at 0.2 µmol/kg of 38%.
In turn, `CC(=O)[O-].C[N+](C)(C)CCNC(=O)[C@@H](CC1CCCCC1)NC(=O)CNC(=O)COc1ccc([C@@H]2[C@@H](SCC(O)c3ccc(F)cc3)C(=O)N2c2ccc(F)cc2)cc1` (stereo partly drawn) [Example 17, N-{[4-((2R,3R)-1-(4-fluorophenyl)-3-{[(2R or $)-2-(4-fluorophenyl)-2-hydroxyethyl]thio}-4-oxoazetidin-2-yl)phenoxy]acetyl}glycyl-3-cyclohexyl-N-[2-(trimethylammonio)ethyl]-D-alaninamide acetate] returned a Caco value in the data set on Caco-2 cells of 0.61 ×10⁻⁶ cm/s.

For orientation: inhibition means the relative decrease from the control value, in per cent. A lower inhibition goes with little suppression.
